Results taken from the PolyMetriX glass transition set.
± gives the standard deviation of the reports.

Compound | glass transition temperature [°C]
*C(=O)Nc1ccc(Oc2ccc(NC(=O)c3ccc4c(c3)C(=O)N(c3ccc(-c5sc(-c6ccc(N7C(=O)c8ccc(*)cc8C7=O)cc6)c(-c6ccccc6)c5-c5ccccc5)cc3)C4=O)cc2)cc1 (repeat unit) | 320.00
*CC1CCC(CNC(=O)c2cccc(C(=O)N*)c2)CC1 (repeat unit) | 208.00
*c1ccc2c(c1)C(=O)N(c1cc(C(=O)Nc3ccc(C(c4ccc(NC(=O)c5ccc(C)c(N6C(=O)c7ccc(C(*)(C(F)(F)F)C(F)(F)F)cc7C6=O)c5)cc4)(C(F)(F)F)C(F)(F)F)cc3)ccc1C)C2=O (repeat unit) | 293.50
*CCCOCCCOC(=O)c1ccc(-c2ccc(C(=O)O*)cc2)cc1 (repeat unit) | 18.50
*CCOCCOC(=O)NCCCCCCNC(=O)O* (repeat unit) | 17.00
*Oc1c(C)cc(C(C)(C)c2cc(C)c(OC(*)=O)c(C)c2)cc1C (repeat unit) | 193.00
*CC(*)OC(=O)c1ccc([Si](C)(C)C)cc1 (repeat unit) | 130.50
*c1c(C)cc(C(c2cc(C)c(N3C(=O)c4ccc(-c5ccc6c(c5)C(=O)N(*)C6=O)cc4C3=O)c(C)c2)c2cccc3ccccc23)cc1C (repeat unit) | 326.00
*c1ccc(Oc2ccc(-c3cc(-c4ccccc4)c4cc(Oc5ccc6nc(*)cc(-c7ccccc7)c6c5)ccc4n3)cc2)cc1 (repeat unit) | 266.00
*c1ccc(NC(=O)c2ccc(OCCOc3ccc(C(=O)Nc4ccc5[nH]c(*)nc5c4)cc3)cc2)cc1 (repeat unit) | 225.00
*CC(*)(C)C(=O)OCc1ccc(/C=C/C(=O)Oc2ccc3oc(=O)ccc3c2)cc1 (repeat unit) | 140.00
*CCCCCCCCCCOC(=O)NNC(=O)CCCCCCCCC(=O)NNC(=O)O* (repeat unit) | 34.00
*c1cccc(OCCCCCCCCCCCOC(=O)c2cccc(C(=O)OCCCCCCCCCCCOc3cccc(-c4nnc(*)s4)c3)c2)c1 (repeat unit) | 15.00
*Oc1ccc(C(=O)Nc2ccc(S(=O)(=O)c3ccc(NC(=O)c4ccc(Oc5nc(*)nc(Sc6ccccc6)n5)cc4)cc3)cc2)cc1 (repeat unit) | 310.00
*c1ccc2c(c1)C(CCCCCCCC)(CCCCCCCC)c1cc(-c3c(F)c(F)c(*)c(F)c3F)ccc1-2 (repeat unit) | 29.00
*CCOP(=O)(/N=N/c1ccc(C(=O)c2ccc(/N=N/P(=O)(O*)OCC)cc2)cc1)OCC (repeat unit) | 33.00
*CCCN(*)C(C)=O (repeat unit) | 30.00
*c1ccc(C(=O)Nc2ccc(-c3nnc(*)o3)cc2)c(Oc2ccccc2)c1 (repeat unit) | 235.00
*OP(=O)(Oc1cccc2c(*)cccc12)OC1CCCCC1 (repeat unit) | 134.00
*O[Si](*)(C)c1ccccc1 (repeat unit) | -28
*C(=O)c1ccc2c(c1)C(=O)N(c1ccc(Cc3ccc(C(=O)c4cccc(N5C(=O)c6ccc(*)cc6C5=O)c4)cc3)cc1)C2=O (repeat unit) | 290.00
*CC(*)(CC(=O)OCC(C)C)C(=O)OCC(C)C (repeat unit) | 125.00
*c1ccc(Sc2ccc(Sc3ccc(Sc4ccc(N5C(=O)c6ccc(Oc7ccc8c(c7)C(=O)N(*)C8=O)cc6C5=O)cc4)cc3)cc2)cc1 (repeat unit) | 202.7

Compound | glass transition temperature [°C]
*CC(C)(CO)CO* (repeat unit) | 62.00
*Oc1ccc2ccc(Oc3ccc(C(=O)Nc4ccc(Oc5ccc(C(C)(C)c6ccc(Oc7ccc(NC(=O)c8ccc(*)cc8)cc7)cc6)cc5)cc4)cc3)cc2c1 (repeat unit) | 143.00
*c1ccc(Oc2cccc(Oc3ccc(N4C(=O)c5ccc(Oc6ccc(Oc7ccc(Oc8ccc9c(c8)C(=O)N(*)C9=O)cc7)cc6)cc5C4=O)cc3)c2)cc1 (repeat unit) | 184.00
*Oc1ccc(Oc2ccc(Oc3ccc(C(C)(C)c4ccc(*)cc4)cc3)cc2)cc1 (repeat unit) | 122.00
*OP(=O)(Oc1ccccc1)Oc1cccc2c(*)cccc12 (repeat unit) | 138.00
*Oc1ccc(Oc2ccc(OC(=O)NC(=O)c3cc(C(=O)NC(*)=O)cc(C(C)(C)C)c3)cc2)cc1 (repeat unit) | 114.50
*Oc1ccc(C(C)(C)c2ccc(Oc3ccc(C(=O)c4ccc(Oc5ccc(C(=O)c6ccc(*)cc6)cc5)cc4)cc3)cc2)cc1 (repeat unit) | 162.00
*CCN(CCOC(=O)NCC1(C)CC(NC(=O)O*)CC(C)(C)C1)c1ccc(/N=N/c2ccc(B(c3c(C)cc(C)cc3C)c3c(C)cc(C)cc3C)cc2)cc1 (repeat unit) | 146.00
*CCCCN1C(=O)c2ccc(C(=O)Oc3ccc(-c4ccc(OC(=O)c5ccc6c(c5)C(=O)N(*)C6=O)cc4)cc3)cc2C1=O (repeat unit) | 126.00
*C(=O)c1ccc2c(c1)C(=O)N(c1ccc(Oc3cc(C(C)(C)C)c(Oc4ccc(N5C(=O)c6ccc(*)cc6C5=O)cc4)cc3C(C)(C)C)cc1)C2=O (repeat unit) | 288.00
*CCOCCOC(=O)C(C)C(=O)O* (repeat unit) | -29.00
*Oc1ccc(C(C)(C)c2ccc(OC(=O)c3ccc(C(*)=O)cc3)c(C(C)CC)c2)cc1C(C)CC (repeat unit) | 90.00
*CC(*)c1ccc(C(=O)CCCCCCC)cc1 (repeat unit) | 50.00
*CCCCCCCC(=O)OCCCCC1COC(*)O1 (repeat unit) | -44.00
*Oc1ccc(S(=O)c2ccc(Oc3ccc(/C=N/N=C/c4ccc(*)cc4)cc3)cc2)cc1 (repeat unit) | 151.00
*CCOCCOCCOc1ccc(/C=C(\C)c2ccc(O*)cc2)cc1 (repeat unit) | 16.00
*C(=O)c1ccc2c(c1)C(=O)N(c1ccc(CP(=O)(OCC)OCC)c(N3C(=O)c4ccc(*)cc4C3=O)c1)C2=O (repeat unit) | 218.00
*CCCCCOc1cccc(C(=O)OC(=O)c2cccc(O*)c2)c1 (repeat unit) | 61.00
*O[Si](C)(C)O[Si](*)(C)CCCCCCCCOc1ccc(C(=O)Oc2ccc(C#N)cc2C)cc1 (repeat unit) | -15.00
*Oc1ccc(Oc2ccc(/C=N/CC/N=C/c3ccc(*)cc3)cc2)cc1 (repeat unit) | 101.00
*CCCCCCCCCCN1C(=O)C2C3C=CC(C4C(=O)N(*)C(=O)C34)C2C1=O (repeat unit) | 219.00
*c1ccc(S(=O)(=O)c2ccc(N3C(=O)C(C)C(SCCOCCSC4C(=O)N(c5ccc(S(=O)(=O)c6ccc(N7C(=O)CC(C)(SCCOCCSC8(C)CC(=O)N(*)C8=O)C7=O)cc6)cc5)C(=O)C4C)C3=O)cc2)cc1 (repeat unit) | 157.00
*CCCCCCOC(=O)C(CCCCCP(=O)(OCC)OCC)C(=O)OCCCCCCOc1ccc(-n2on2-c2ccc(O*)cc2)cc1 (repeat unit) | 7.00

Compound | glass transition temperature [°C]
*CC(*)c1ccc(COCCOCCCC)cc1 (repeat unit) | -38.00
*CC(O)CN(*)c1ccccc1 (repeat unit) | 78.50
*c1ccc(Oc2ccc(C(C)(C)c3ccc(Oc4ccc(-c5nc(*)nc(-c6ccccc6)n5)cc4)cc3)cc2)cc1 (repeat unit) | 228.00
*c1ccc(Oc2cccc(Oc3ccc(N4C(=O)c5ccc(Oc6ccc7c(c6)C(=O)N(*)C7=O)cc5C4=O)cc3)c2)cc1 (repeat unit) | 208.2 ± 12
*CCCCCCCNC(=O)CCCCC(=O)N* (repeat unit) | 55.00
*Oc1ccc(CC(NC(=O)CCc2ccc(OC(=O)CCCCCCCCC(*)=O)cc2)C(=O)OCC)cc1 (repeat unit) | 44.00
*c1ccc(-c2ccc(-c3cc(-c4ccccc4)c4cc5nc(*)cc(-c6ccccc6)c5cc4n3)cc2)cc1 (repeat unit) | 383.00
*CC(*)C(=O)Oc1cc(C)cc(C)c1 (repeat unit) | 54.00
*Cc1ccc(CNC(=O)CCCCCCCCCCC(=O)N*)cc1 (repeat unit) | 105.00
*CCCCCC(*)CCCCCCCCCC (repeat unit) | -65.00
*c1ccc2c(c1)C(=O)N(c1cccc(C(O)c3cccc(N4C(=O)c5ccc(C(*)(C(F)(F)F)C(F)(F)F)cc5C4=O)c3)c1)C2=O (repeat unit) | 262.00
*Oc1ccc(CC(NC(=O)CCc2ccc(OC(=O)COCC(*)=O)cc2)C(=O)OCCCCCC)cc1 (repeat unit) | 45.00
*CCCCCCCCCCCCN1C(=O)c2ccc(C(=O)c3ccc4c(c3)C(=O)N(*)C4=O)cc2C1=O (repeat unit) | 87.50
*CC(*)(C)OC (repeat unit) | 67.00
*Oc1ccc(C(C)(C)c2ccc(Oc3ccc(C(=O)c4c(C(=O)c5ccc(*)cc5)c(-c5ccc(F)cc5)c(-c5ccc(F)cc5)c(-c5ccc(F)cc5)c4-c4ccc(F)cc4)cc3)cc2)cc1 (repeat unit) | 252.00
*Oc1ccc(Oc2ccc(Oc3ccc(NC(=O)c4cc(C(=O)Nc5ccc(*)cc5)cc(C(C)(C)C)c4)cc3)cc2)cc1 (repeat unit) | 230.00
*c1ccc(-c2nc3cc(S(=O)(=O)c4ccc5nc(-c6ccccc6)c(*)nc5c4)ccc3nc2-c2ccccc2)cc1 (repeat unit) | 345.00
*CC(*)c1ccc(COCCOCCCCCCCC)cc1 (repeat unit) | -42.00
*OC(COC(=O)NCCCCCCNC(*)=O)c1ccco1 (repeat unit) | 17.00
*Oc1ccc(C(C)(C)c2ccc(Oc3ccc4c(c3)C(=O)N(N3C(=O)c5ccc(*)cc5C3=O)C4=O)cc2)cc1 (repeat unit) | 216.70
*Oc1ccc(OC(=O)CCCCCCCCC(*)=O)cc1 (repeat unit) | 52.80
*CC(*)(C)C(=O)Oc1ccc(C(=O)Oc2ccc(-c3ccccc3)cc2)cc1 (repeat unit) | 100.00
